For orientation: pIC50 means −log10 of the IC50, conventionally taken in molar units.

For assay [1], the target named is C. elegans (N2) complex I (NADH:ubiquinone oxidoreductase) (Caenorhabditis elegans, UniProt P24887+Q93873+Q94360). Put plainly: biochemical. It counts as biochemical. To be noted: for Log IC50 C. elegans complex I: log10 of IC50 in µM, C. elegans mitochondria. In short, it runs like this: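 Mitochondria, 0.2 mg/mL protein, freeze-thawed three times, assayed in 25 mM KPi pH 7.5 with BSA, 80 μM NADH, 60 μM decylubiquinone, 160 μM DCIP, antimycin A and KCN. Rate from initial linear slope of A600 over 15 min. % of solvent control.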
C. elegans (N2) complex I (NADH:ubiquinone oxidoreductase), sequence (Q94360 17-199): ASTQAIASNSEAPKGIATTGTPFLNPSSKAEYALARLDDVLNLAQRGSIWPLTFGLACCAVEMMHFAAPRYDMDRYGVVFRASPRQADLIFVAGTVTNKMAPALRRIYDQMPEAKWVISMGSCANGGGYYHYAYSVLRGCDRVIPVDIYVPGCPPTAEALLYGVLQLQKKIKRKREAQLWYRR
C. elegans (N2) complex I (NADH:ubiquinone oxidoreductase), sequence (P24887 whole entry): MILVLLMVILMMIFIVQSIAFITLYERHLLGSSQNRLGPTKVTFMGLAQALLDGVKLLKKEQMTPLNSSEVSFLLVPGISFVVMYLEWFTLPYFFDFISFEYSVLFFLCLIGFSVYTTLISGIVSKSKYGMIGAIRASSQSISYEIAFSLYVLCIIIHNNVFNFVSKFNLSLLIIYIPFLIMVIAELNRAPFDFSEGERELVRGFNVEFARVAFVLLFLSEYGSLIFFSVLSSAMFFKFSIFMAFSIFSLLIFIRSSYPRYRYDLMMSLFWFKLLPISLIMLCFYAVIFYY
C. elegans (N2) complex I (NADH:ubiquinone oxidoreductase), sequence (Q93873 31-482): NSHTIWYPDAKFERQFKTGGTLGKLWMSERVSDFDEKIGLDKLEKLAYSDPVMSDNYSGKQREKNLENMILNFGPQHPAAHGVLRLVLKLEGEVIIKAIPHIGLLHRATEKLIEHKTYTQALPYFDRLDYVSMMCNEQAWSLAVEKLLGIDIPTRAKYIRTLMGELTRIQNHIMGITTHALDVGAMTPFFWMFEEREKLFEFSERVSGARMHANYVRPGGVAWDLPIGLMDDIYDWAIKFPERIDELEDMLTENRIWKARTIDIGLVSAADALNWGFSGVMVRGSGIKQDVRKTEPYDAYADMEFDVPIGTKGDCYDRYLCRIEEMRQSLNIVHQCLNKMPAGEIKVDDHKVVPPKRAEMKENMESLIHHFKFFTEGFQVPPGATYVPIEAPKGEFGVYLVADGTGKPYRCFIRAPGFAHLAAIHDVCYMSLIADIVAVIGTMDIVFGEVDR

Assay [2] has as its target B. taurus (heart) complex I (Bos taurus, UniProt P03887+P17694+P42026). As to the kind of experiment: biochemical. Type of assay: biochemical. The conditions noted are these: for pIC50: B. taurus heart mitochondria, read-out: B. taurus Complex I IC50; for Log IC50 B. taurus complex I: log10 of IC50 in µM, B. taurus mitochondria. Here is the method: Six 8–10-week-old C57Bl/6 female mice (Charles River) were freshly dissected, and their livers and hearts collected into separate 1.5 mL microcentrifuge tubes. Organs were flash-frozen in liquid nitrogen and stored at −80 °C prior to use. The heart of a freshly slaughtered adult cow was obtained from a local abattoir (Peel Sausage Inc.), chopped into ~1-inch cubes and collected into 50 mL falcon tubes. Falcon tubes were flash-frozen in a container of dry ice and stored at −80 °C prior to use. Isolation of mitochondria from all mammalian tissue was carried out following the protocol described above. However, due to size, the initial homogenization of tissue was performed by 15 strokes in a dounce homogenizer (mouse heart) or with several 5 s pulses in small Nutribullet blender (cow heart). All mouse protocols for mouse care and dissection were reviewed and approved by the University of Toronto Animal Care Committee, in accordance with the Canadian Council on Animal Care.
The enzymatic activities of individual ETC complexes (I-IV) were assessed spectrophotometrically in isolated mitochondria using a Varioskan LUX Multimode plate reader (ThermoFisher Scientific). Mitochondrial pellets previously isolated were thawed on ice and resuspended in ice-cold isolation buffer (250 mM sucrose, 10 mM Tris (pH 7.5), 1 mM EDTA). The BCA assay (Walker, 1994) was used to quantify the protein concentration of mitochondria suspensions; solutions were diluted to a concentration of 0.2 mg/mL for use in all assays. For the complex I assay, mitochondria pellets were freeze-thawed on ice three times to increase enzyme accessibility. […] 20 μL mitochondria suspension was then added/mixed with a pipette to initiate the reaction. Immediately following the addition of mitochondria, absorbance was measured (complex I and II: 600 nm; complex III and IV: 550 nm) in 30 s intervals over 15 min. Enzymatic activity was determined in each reaction by plotting absorbance versus time and calculating the slope of the curve during the initial linear phase of the reaction. […] Percent activity of each complex was calculated by dividing the enzyme-specific activity of each well by the enzyme-specific activity of the corresponding solvent controls.
Chemical solutions were prepared in complex I assay buffer composed of 25 mM KPi buffer (pH 7.5), 3 mg/mL bovine serum albumin (BSA), 80 μM NADH, 60 μM decylubiquinone, 160 μM DCIP, 2 μM antimycin A and 2 mM KCN.
For preliminary screens of hit compounds, compounds were screened at 100 μM; data are the average of at least three biological replicates. The complex I and II activity assays were used for additional dose-response experiments. […] For dose responses of benzimidazole analogs, data represent the average of two biological replicates. For all other dose-responses, data represent the average of at least three biological replicates.

[3] abbreviates: in vitro complex I dose response on C. elegans mitochondria, average of at least two biological replicates, fit in R (DRC), read-out: IC50 C. elegans complex I.
[4] abbreviates: wild-type (N2) mitochondria, read-out: C. elegans Complex I IC50.
The mark [5] stands for this setting: wild-type C. elegans mitochondria, read-out: C. elegans Complex I IC50.
Setting [6] is: wild-type C. elegans mitochondria, estimated from fitted dose-response curves, read-out: C. elegans Complex I IC50.
Where [7] appears, read: estimated from fitted dose-response curves.

pIC50: −log10 of the molar value. Like-named read-outs stand apart in the source and are kept apart here.

B. taurus (heart) complex I, sequence (P03887 whole entry): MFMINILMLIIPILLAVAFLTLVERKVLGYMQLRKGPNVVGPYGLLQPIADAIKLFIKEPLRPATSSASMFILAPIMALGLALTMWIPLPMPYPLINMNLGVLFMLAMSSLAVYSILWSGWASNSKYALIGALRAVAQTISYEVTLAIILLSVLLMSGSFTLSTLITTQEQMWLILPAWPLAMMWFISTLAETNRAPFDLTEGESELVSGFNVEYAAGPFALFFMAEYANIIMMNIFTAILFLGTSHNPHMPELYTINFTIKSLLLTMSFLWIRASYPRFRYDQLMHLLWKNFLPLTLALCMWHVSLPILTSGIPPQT
B. taurus (heart) complex I, sequence (P17694 34-463): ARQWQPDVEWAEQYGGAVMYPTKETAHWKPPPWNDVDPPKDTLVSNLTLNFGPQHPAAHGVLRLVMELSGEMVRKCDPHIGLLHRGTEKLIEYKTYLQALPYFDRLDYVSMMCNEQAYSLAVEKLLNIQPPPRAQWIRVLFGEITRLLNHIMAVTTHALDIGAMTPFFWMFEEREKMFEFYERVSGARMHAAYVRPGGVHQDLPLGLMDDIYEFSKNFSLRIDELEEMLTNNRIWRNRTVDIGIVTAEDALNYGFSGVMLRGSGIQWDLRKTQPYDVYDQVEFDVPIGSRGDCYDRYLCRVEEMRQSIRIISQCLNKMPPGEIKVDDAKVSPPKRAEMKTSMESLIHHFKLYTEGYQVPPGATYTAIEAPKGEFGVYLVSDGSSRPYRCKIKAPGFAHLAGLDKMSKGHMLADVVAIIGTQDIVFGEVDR
B. taurus (heart) complex I, sequence (P42026 38-216): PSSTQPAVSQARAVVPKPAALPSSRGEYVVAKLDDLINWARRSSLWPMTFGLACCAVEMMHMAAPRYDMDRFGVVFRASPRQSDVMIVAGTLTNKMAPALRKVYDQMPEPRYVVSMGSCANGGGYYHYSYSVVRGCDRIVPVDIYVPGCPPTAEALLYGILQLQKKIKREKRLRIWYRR

As to `Cc1ccc(Cn2c(C(C)C)nc3ccccc32)cc1` [Compound 6586153], the pIC50 in assay [1] (setting [3]) is 5.03; in assay [1] (setting [4]), 5.03; in assay [1] (setting [5]), 5.03; in assay [2], 4.24. In addition, in assay [1], the “Log IC50 C. elegans complex I” value stood at 0.97 µM. Besides, the “Log IC50 B. taurus complex I” value in assay [2] worked out at 1.76 µM.
For `CCn1c(C(C)c2ccc(CC(C)C)cc2)nc2ccccc21` (stereo not shown) [STK951902], the pIC50 in assay [1] (setting [3]) is 5.74; in assay [1] (setting [4]), 5.74; in assay [1] (setting [6]), 5.74; in assay [2] (setting [7]), 4.90. In addition, the “Log IC50 C. elegans complex I” value in assay [1] is listed as 0.26 µM. Moreover, the “Log IC50 B. taurus complex I” value in assay [2] came to 1.10 µM.
Take `C=CCn1c(C(C)c2ccc(CC(C)C)cc2)nc2ccccc21` (stereo not shown) [STL020755]: the pIC50 was 5.64 in assay [1] (setting [3]), 5.64 in assay [1] (setting [4]), 5.64 in assay [1] (setting [6]) and 4.77 in assay [2] (setting [7]). Also, the “Log IC50 C. elegans complex I” value in assay [1] is on record as 0.36 µM. Also, the “Log IC50 B. taurus complex I” value in assay [2] was 1.23 µM.
For `CCc1cc(OCCn2cnc3ccccc32)ccc1Cl` [Compound 7925288], the activity at 0.0001 µM in assay [1] (Dose 0.0001 µM, read-out: C. elegans mitochondrial complex I activity) was found to be 89.3%; in assay [2] (Dose 0.0001 µM, read-out: B. taurus mitochondrial complex I activity), 89.8%. Further, the activity at 0.0005 µM in assay [1] (Dose 0.0005 µM, read-out: C. elegans mitochondrial complex I activity) was 90.8%; in assay [2] (Dose 0.0005 µM, read-out: B. taurus mitochondrial complex I activity), 91.3%. The activity at 0.001 µM in assay [1] (Dose 0.001 µM, read-out: C. elegans mitochondrial complex I activity) amounted to 94%; in assay [2] (Dose 0.001 µM, read-out: B. taurus mitochondrial complex I activity), 88.8%. For the same molecule, the activity at 0.0025 µM is 90.8% in assay [1] (Dose 0.0025 µM, read-out: C. elegans mitochondrial complex I activity) and 86.3% in assay [2] (Dose 0.0025 µM, read-out: B. taurus mitochondrial complex I activity). Moreover, the activity at 0.005 µM in assay [1] (Dose 0.005 µM, read-out: C. elegans mitochondrial complex I activity) stood at 98.8%; in assay [2] (Dose 0.005 µM, read-out: B. taurus mitochondrial complex I activity), 84.5%. Besides, the activity at 0.013 µM in assay [1] (Dose 0.013 µM, read-out: C. elegans mitochondrial complex I activity) is 96.9%; in assay [2] (Dose 0.013 µM, read-out: B. taurus mitochondrial complex I activity), 89.2%. The activity at 0.025 µM in assay [1] (Dose 0.025 µM, read-out: C. elegans mitochondrial complex I activity) turned out to be 96.9%; in assay [2] (Dose 0.025 µM, read-out: B. taurus mitochondrial complex I activity) it was 82.7%. In addition, the activity at 0.063 µM is 63.2% in assay [1] (Dose 0.063 µM, read-out: C. elegans mitochondrial complex I activity) and 84.2% in assay [2] (Dose 0.063 µM, read-out: B. taurus mitochondrial complex I activity). Also, the activity at 0.125 µM in assay [1] (Dose 0.125 µM, read-out: C. elegans mitochondrial complex I activity) turned out to be 63.3%; in assay [2] (Dose 0.125 µM, read-out: B. taurus mitochondrial complex I activity) it was 82.8%. Moreover, the activity at 0.313 µM amounted to 77.6% in assay [1] (Dose 0.313 µM, read-out: C. elegans mitochondrial complex I activity) and 79.8% in assay [2] (Dose 0.313 µM, read-out: B. taurus mitochondrial complex I activity). Also, the activity at 0.625 µM in assay [1] (Dose 0.625 µM, read-out: C. elegans mitochondrial complex I activity) amounted to 77.6%; in assay [2] (Dose 0.625 µM, read-out: B. taurus mitochondrial complex I activity), 84.6%. The activity at 1.5 µM in assay [1] (Dose 1.5 µM, read-out: C. elegans mitochondrial complex I activity) turned out to be 60.7%; in assay [2] (Dose 1.5 µM, read-out: B. taurus mitochondrial complex I activity), 75.4%. Further, the activity at 3 µM in assay [1] (Dose 3 µM, read-out: C. elegans mitochondrial complex I activity) is 46.8%; in assay [2] (Dose 3 µM, read-out: B. taurus mitochondrial complex I activity), 61.1%. Besides, the activity at 15 µM was found to be 16.1% in assay [1] (Dose 15 µM, read-out: C. elegans mitochondrial complex I activity) and 17.7% in assay [2] (Dose 15 µM, read-out: B. taurus mitochondrial complex I activity). The activity at 37.5 µM in assay [1] (Dose 37.5 µM, read-out: C. elegans mitochondrial complex I activity) came to 4.53%; in assay [2] (Dose 37.5 µM, read-out: B. taurus mitochondrial complex I activity) it was 2.74%. The activity at 75 µM in assay [1] (Dose 75 µM, read-out: C. elegans mitochondrial complex I activity) was 2.28%; in assay [2] (Dose 75 µM, read-out: B. taurus mitochondrial complex I activity) it was 1.27%. The pIC50 in assay [1] (setting [3]) was 5.09; in assay [1] (setting [5]), 5.09; in assay [2], 5.24. Moreover, the “Log IC50 C. elegans complex I” value in assay [1] was 0.91 µM. Further, the “Log IC50 B. taurus complex I” value in assay [2] is recorded as 0.76 µM.

The record behind these values is article PMC11079024, “Identification of a family of species-selective complex I inhibitors as potential anthelmintics” (Nature Communications, 2024).
